Data published in patent US20090069443A1, “Sedative Effect-Imparting Agent And Sedative Perfume Composition Containing The Same” (Shiseido Co., Ltd., priority 2005, published 2009).
Entries after “also recorded” stand apart in the source; their conditions may differ.

Each compound was assayed on healthy adult females (assay: CNV (contingent negative variation) brain wave measurement of sedative effect). Details: 1 mass % solution in ethanol, inhaled from cotton pad below the nose; three to six healthy adult females; FIG. 1.
Format: in vivo, human
From the text: Measured was fluctuation in the negative potential of the event-related potential, a type of brain wave, which is also called contingent negative variation (hereinafter, referred to as CNV). The fluctuation intensity of the earlier component of the CNV brain wave is reported to show a positive correlation with the level of consciousness such as attention or expectation, and thus, the CNV brain wave can be used for quantitative evaluation of the effect of a fragrance on the consciousness level (sedated/stimulated) (Torii S. et al., Contingent negative variation (CNV) and the psychological effects of odour. In Perfumery: The Psychology and Biology of Fragrance, Edited by Toller S. V. and Dodd G. H., pp. 107-120, Chapman and Hall, London (1998)).
In the present invention, electrodes were adhered to the […] (Cz) and the left ear (A1) of a subject, and the voltage between the electrodes was measured with an electroencephalograph. The subject was made to listen to a click sound via headphone and push a switch in hand in response to a light-emitting diode flashing few seconds after the click sound, and the CNV brain wave was determined during the operation. In the test with fragrance, a perfume composition was allowed to penetrate into a square cotton pad of approximately 0.5 0.5 cm in size; the cotton pad was placed below the nose; and the subject was allowed to inhale the fragrance together with normal breathing during the series of operations above. […] The CNV brain waves were measured 30 times with and without fragrance respectively, and the fragrance effect was evaluated by comparing the integrated values of the earlier component of the CNV brain wave 400 to 1,000 ms after the click.
o-dimethoxybenzene (o-DMB), m-dimethoxybenzene (m-DMB), and p-dimethoxybenzene (p-DMB) were dissolved respectively in ethanol, to give 1 mass % solutions, and the effect thereof on CNV was measured according to the test method as above. […]
With `COc1cccc(OC)c1` [m-dimethoxybenzene] the “sedative effect (effect on CNV)” value was “favorable effect that leads the subject to sedative direction; also recorded: particularly favorable sedative effect”. `COc1ccc(OC)cc1` [p-dimethoxybenzene] was tested, and the “sedative effect (effect on CNV)” value was “favorable effect that leads the subject to sedative direction”. In the case of `COc1ccccc1OC` [o-dimethoxybenzene], the “sedative effect (effect on CNV)” value is reported as “favorable effect that leads the subject to sedative direction; also recorded: particularly favorable sedative effect”.
